# Reference: ChEMBL document CHEMBL1201862, “PubChem BioAssay data set” (2004)
#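 Values below derive from 48-hour exposures of cells grown in 96-well plates, with endpoints linearly interpolated between the two concentrations bracketing the appropriate inhibition level. GI50 marks 50% less growth.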 Active and inactive are the calls of the source. No stated cut-off is given here; in the data, active = GI50 up to about 1.1 µM and inactive = higher.
# Experiments:
# Assay in all cases: NCI-60 cell line screen, 48 h
# [1] = tested on: 786-0
# [2] = tested on: CCRF-CEM
# [3] = tested on: COLO 205
# [4] = tested on: HL-60
# [5] = tested on: HT-29
# [6] = tested on: Hs-578T
# [7] = tested on: IGROV-1
# [8] = tested on: K562
# [9] = tested on: MDA-MB-435
# [10] = tested on: MOLT-4
# [11] = tested on: NCI-H460
# [12] = tested on: SF-268
# [13] = tested on: SK-MEL-5
# [14] = tested on: SN12C
# [15] = tested on: SNB-19
# [16] = tested on: SR
# [17] = tested on: T47D
# [18] = tested on: UO-31
# [19] = tested on: BT-549
# [20] = tested on: NCI-H226
SMILES,GI50 [1],GI50 [2],GI50 [3],GI50 [4],GI50 [5],GI50 [6],GI50 [7],GI50 [8],GI50 [9],GI50 [10],GI50 [11],GI50 [12],GI50 [13],GI50 [14],GI50 [15],GI50 [16],GI50 [17],GI50 [18],GI50 [19],GI50 [20]
CC1(C)CC2=NOS3=C2C(=NO3)C1c1ccccn1 (centres undefined),34.7 µM (inactive),29 µM (inactive),31.2 µM (inactive),24.3 µM (inactive),56.8 µM (inactive),> 100 µM (inactive),29.6 µM (inactive),24 µM (inactive),18.6 µM (inactive),34.3 µM (inactive),33.7 µM (inactive),> 100 µM (inactive),17.8 µM (inactive),> 100 µM (inactive),> 100 µM (inactive),39.3 µM (inactive),> 100 µM (inactive),61.7 µM (inactive),,
FC(F)(F)c1cc(Cl)cnc1N/N=C(/c1ccccc1)c1ccccn1,2.84 µM (inactive),0.492 µM (active),2.03 µM (inactive),,0.248 µM (active),0.422 µM (active),1.92 µM (inactive),2.16 µM (inactive),4.85 µM (inactive),1.31 µM (inactive),3.68 µM (inactive),0.78 µM (active),3.15 µM (inactive),5.36 µM (inactive),4.67 µM (inactive),0.708 µM (active),,2.94 µM (inactive),6.93 µM (inactive),1.57 µM (inactive)
C/C=C\C(CC(=O)NCCc1cn(C(=O)OCc2ccccc2)c2ccccc12)CC(=O)OC (centres undefined),> 100 µM (inactive),,40.6 µM (inactive),,48.5 µM (inactive),> 100 µM (inactive),76.7 µM (inactive),71.1 µM (inactive),42.3 µM (inactive),48 µM (inactive),> 100 µM (inactive),> 100 µM (inactive),34.9 µM (inactive),,63.1 µM (inactive),,,50.8 µM (inactive),60 µM (inactive),
C=CC[C@H](O)[C@@](NC(=O)OCc1ccccc1)(Sc1ccc(C)cc1)C(F)(F)F,16.9 µM (inactive),,20.3 µM (inactive),11.5 µM (inactive),23.9 µM (inactive),24 µM (inactive),10.1 µM (inactive),35 µM (inactive),24.1 µM (inactive),20.3 µM (inactive),30.7 µM (inactive),18.1 µM (inactive),26.9 µM (inactive),17.3 µM (inactive),32.6 µM (inactive),20.1 µM (inactive),,17.9 µM (inactive),10.9 µM (inactive),16.5 µM (inactive)
Oc1cc2c(cc1O)-c1[nH]ncc1CC2,39.6 µM (inactive),11.4 µM (inactive),26.1 µM (inactive),24.3 µM (inactive),37.6 µM (inactive),,31.6 µM (inactive),32.7 µM (inactive),,22.4 µM (inactive),43.3 µM (inactive),25.6 µM (inactive),35.1 µM (inactive),49 µM (inactive),46.8 µM (inactive),27.8 µM (inactive),,18.4 µM (inactive),,18.6 µM (inactive)
CCOC(=O)c1cc(-c2ccc(OC)cc2)c([N+](=O)[O-])n1C,> 10 µM (inactive),> 10 µM (inactive),,> 10 µM (inactive),> 10 µM (inactive),> 10 µM (inactive),> 10 µM (inactive),6.84 µM (inactive),> 10 µM (inactive),> 10 µM (inactive),> 10 µM (inactive),> 10 µM (inactive),,> 10 µM (inactive),> 10 µM (inactive),9.1 µM (inactive),,> 10 µM (inactive),> 10 µM (inactive),> 10 µM (inactive)
CCOC(=O)[C@@H]1ON2O[C@@H](OC3CCCC3(c3ccccc3)c3ccccc3)C[C@H]3OC(=O)[C@@H]1C32 (some centres undefined),30.2 µM (inactive),27.5 µM (inactive),38.1 µM (inactive),23.2 µM (inactive),15.2 µM (inactive),31.4 µM (inactive),33.8 µM (inactive),,16.8 µM (inactive),29.9 µM (inactive),35.6 µM (inactive),28.7 µM (inactive),32 µM (inactive),32.8 µM (inactive),,23.1 µM (inactive),22.3 µM (inactive),19.1 µM (inactive),,56.6 µM (inactive)
CC1OC(CC2C=CCc3c(O)c4c(c(O)c32)C(=O)c2ccccc2C4=O)CC(NC(=O)C(F)(F)F)C1O (centres undefined),11.1 µM (inactive),5.11 µM (inactive),13.8 µM (inactive),11.8 µM (inactive),14.4 µM (inactive),,18.9 µM (inactive),4.85 µM (inactive),,7.21 µM (inactive),5.25 µM (inactive),10.3 µM (inactive),11.2 µM (inactive),5.5 µM (inactive),4.86 µM (inactive),3.7 µM (inactive),,20 µM (inactive),,13.7 µM (inactive)
